From publication PMC4490784, “Compensatory induction of MYC expression by sustained CDK9 inhibition via a BRD4-dependent mechanism” (eLife, 2015)

Tests used:
Test in all cases: KINOMEscan binding assay
TNK2 = target: T1, TNK2 (Homo sapiens, UniProt Q07912); details: read-out: % Retention on Solid Support
T1 construct: purchased DiscoveRx KINOMEscan
Summary of the method: (§1)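 Kinome-wide competition binding assay (active site-directed), i-CDK9 tested at 1 µM and 10 µM, >400 targets.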

CDC2L1 = target: T2, CDC2L1 (Homo sapiens, UniProt P21127); details: read-out: % Retention on Solid Support
T2 construct: purchased DiscoveRx KINOMEscan
Summary of the method: as §1

[1] = target: T3, EGFR(L747-S752del, P753S) (Homo sapiens, UniProt P00533, DEL747-752/P753S)
T3 construct: purchased DiscoveRx KINOMEscan
Summary of the method: as §1

MAPKAPK5 = target: T4, MAPKAPK5 (Homo sapiens, UniProt Q8IW41); details: read-out: % Retention on Solid Support
T4 construct: purchased DiscoveRx KINOMEscan
T4 sequence (Q8IW41 1-473): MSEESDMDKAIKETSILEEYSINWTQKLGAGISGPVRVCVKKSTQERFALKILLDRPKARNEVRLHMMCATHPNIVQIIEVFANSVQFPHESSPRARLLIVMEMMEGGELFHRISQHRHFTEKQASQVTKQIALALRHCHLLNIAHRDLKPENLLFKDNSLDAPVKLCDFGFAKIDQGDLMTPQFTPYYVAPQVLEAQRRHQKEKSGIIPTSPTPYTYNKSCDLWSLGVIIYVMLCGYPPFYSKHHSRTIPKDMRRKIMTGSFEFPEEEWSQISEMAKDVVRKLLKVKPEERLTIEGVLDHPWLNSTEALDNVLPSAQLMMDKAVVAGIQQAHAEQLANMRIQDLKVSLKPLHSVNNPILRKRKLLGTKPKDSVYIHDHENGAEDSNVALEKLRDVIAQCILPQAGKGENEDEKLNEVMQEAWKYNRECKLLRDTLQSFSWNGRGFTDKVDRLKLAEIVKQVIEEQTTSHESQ
Summary of the method: as §1

TSSK1B = target: T5, TSSK1B (Homo sapiens, UniProt Q9BXA7); details: read-out: % Retention on Solid Support
T5 construct: purchased DiscoveRx KINOMEscan
Summary of the method: as §1

CAMK2G = target: T6, CAMK2G (Homo sapiens, UniProt Q13555); details: read-out: % Retention on Solid Support
T6 construct: purchased DiscoveRx KINOMEscan
Summary of the method: as §1

AMPK-alpha1 = target: T7, AMPK-alpha1 (Homo sapiens, UniProt Q13131); details: read-out: % Retention on Solid Support
T7 construct: purchased DiscoveRx KINOMEscan
Summary of the method: as §1

CDK11 = target: T8, CDK11 (Homo sapiens, UniProt Q9BWU1)
T8 construct: purchased DiscoveRx KINOMEscan
Summary of the method: as §1

MET(Y1235D) = target: T9, MET(Y1235D) (Homo sapiens, UniProt P08581, Y1235D)
T9 construct: purchased DiscoveRx KINOMEscan
Summary of the method: as §1

TAOK1 = target: T10, TAOK1 (Homo sapiens, UniProt Q7L7X3); details: read-out: % Retention on Solid Support
T10 construct: purchased DiscoveRx KINOMEscan
Summary of the method: as §1

PDGFRA = target: T11, PDGFRA (Homo sapiens, UniProt P16234); details: read-out: % Retention on Solid Support
T11 construct: purchased DiscoveRx KINOMEscan
T11 sequence (P16234 24-1089): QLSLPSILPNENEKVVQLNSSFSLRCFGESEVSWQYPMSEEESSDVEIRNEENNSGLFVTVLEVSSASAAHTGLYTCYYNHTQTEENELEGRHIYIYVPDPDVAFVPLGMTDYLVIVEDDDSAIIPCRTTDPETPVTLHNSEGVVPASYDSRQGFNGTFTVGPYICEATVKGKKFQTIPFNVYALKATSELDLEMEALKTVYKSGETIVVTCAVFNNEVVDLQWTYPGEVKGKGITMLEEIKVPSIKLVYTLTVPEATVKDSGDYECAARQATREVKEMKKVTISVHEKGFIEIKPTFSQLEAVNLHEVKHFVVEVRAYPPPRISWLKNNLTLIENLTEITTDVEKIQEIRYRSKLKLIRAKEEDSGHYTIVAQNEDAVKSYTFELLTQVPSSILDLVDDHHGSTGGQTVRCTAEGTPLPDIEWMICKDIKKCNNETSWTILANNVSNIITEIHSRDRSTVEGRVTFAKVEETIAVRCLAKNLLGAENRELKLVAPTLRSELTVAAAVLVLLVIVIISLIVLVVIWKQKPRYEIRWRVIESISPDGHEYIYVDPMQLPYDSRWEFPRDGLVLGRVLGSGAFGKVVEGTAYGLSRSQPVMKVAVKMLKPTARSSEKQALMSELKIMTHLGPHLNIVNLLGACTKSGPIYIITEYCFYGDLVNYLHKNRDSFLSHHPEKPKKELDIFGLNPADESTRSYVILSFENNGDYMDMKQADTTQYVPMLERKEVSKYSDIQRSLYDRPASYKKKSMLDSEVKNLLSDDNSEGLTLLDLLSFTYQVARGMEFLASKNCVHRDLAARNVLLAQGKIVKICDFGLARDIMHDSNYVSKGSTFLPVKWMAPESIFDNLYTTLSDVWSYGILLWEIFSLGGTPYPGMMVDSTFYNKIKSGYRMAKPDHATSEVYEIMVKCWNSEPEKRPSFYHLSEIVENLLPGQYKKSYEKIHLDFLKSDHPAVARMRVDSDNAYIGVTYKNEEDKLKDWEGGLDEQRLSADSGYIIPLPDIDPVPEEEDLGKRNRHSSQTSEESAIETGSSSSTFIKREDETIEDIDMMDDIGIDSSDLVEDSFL
Summary of the method: as §1

MLCK = target: T12, MLCK (Homo sapiens, UniProt Q32MK0); details: read-out: % Retention on Solid Support
T12 construct: purchased DiscoveRx KINOMEscan
Summary of the method: as §1

MAPKAPK2 = target: T13, MAPKAPK2 (Homo sapiens, UniProt P49137); details: read-out: % Retention on Solid Support
T13 construct: purchased DiscoveRx KINOMEscan
Summary of the method: as §1

CSNK1A1 = target: T14, CSNK1A1 (Homo sapiens, UniProt P48729); details: 1 µM i-CDK9; read-out: % Retention on Solid Support
T14 construct: purchased DiscoveRx KINOMEscan
Summary of the method: as §1

EGFR(L858R) = target: T15, EGFR(L858R) (Homo sapiens, UniProt P00533, L858R)
T15 construct: purchased DiscoveRx KINOMEscan
Summary of the method: as §1

MARK3 = target: T16, MARK3 (Homo sapiens, UniProt P27448); details: read-out: % Retention on Solid Support
T16 construct: purchased DiscoveRx KINOMEscan
Summary of the method: as §1

BLK = target: T17, BLK (Homo sapiens, UniProt P51451); details: read-out: % Retention on Solid Support
T17 construct: purchased DiscoveRx KINOMEscan
T17 sequence (P51451 whole entry): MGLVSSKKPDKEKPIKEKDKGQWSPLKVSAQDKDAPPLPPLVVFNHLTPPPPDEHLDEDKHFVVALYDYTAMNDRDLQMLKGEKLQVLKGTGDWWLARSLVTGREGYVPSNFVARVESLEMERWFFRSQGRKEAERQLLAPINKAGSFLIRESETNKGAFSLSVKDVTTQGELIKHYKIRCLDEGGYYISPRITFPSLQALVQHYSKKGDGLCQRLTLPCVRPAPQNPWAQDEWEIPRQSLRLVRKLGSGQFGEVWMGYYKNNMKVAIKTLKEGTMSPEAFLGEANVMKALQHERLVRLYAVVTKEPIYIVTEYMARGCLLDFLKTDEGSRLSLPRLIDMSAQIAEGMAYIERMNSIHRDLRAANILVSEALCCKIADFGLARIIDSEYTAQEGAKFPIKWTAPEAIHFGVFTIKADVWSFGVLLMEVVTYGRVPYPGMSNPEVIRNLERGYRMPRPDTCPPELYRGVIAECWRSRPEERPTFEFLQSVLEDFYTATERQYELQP
Summary of the method: as §1

GSK3B = target: T18, GSK3B (Homo sapiens, UniProt P49841); details: read-out: % Retention on Solid Support
T18 construct: purchased DiscoveRx KINOMEscan
Summary of the method: as §1

PRKX = target: T19, PRKX (Homo sapiens, UniProt P51817); details: read-out: % Retention on Solid Support
T19 construct: purchased DiscoveRx KINOMEscan
T19 sequence (P51817 whole entry): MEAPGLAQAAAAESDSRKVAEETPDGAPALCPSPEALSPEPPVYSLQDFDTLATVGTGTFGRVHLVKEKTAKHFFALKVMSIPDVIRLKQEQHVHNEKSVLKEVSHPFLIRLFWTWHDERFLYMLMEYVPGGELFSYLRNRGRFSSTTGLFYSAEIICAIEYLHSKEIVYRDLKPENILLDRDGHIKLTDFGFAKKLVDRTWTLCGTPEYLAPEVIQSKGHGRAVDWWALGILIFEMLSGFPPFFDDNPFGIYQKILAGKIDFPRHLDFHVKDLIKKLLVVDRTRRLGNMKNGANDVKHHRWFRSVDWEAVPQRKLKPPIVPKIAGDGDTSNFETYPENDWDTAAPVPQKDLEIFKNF
Summary of the method: as §1

[2] = target: T20, ABL1(T315I)-phosphorylated (Homo sapiens, UniProt P00519, T315I); details: 1 µM i-CDK9; read-out: % Retention on Solid Support
T20 construct: purchased DiscoveRx KINOMEscan
Summary of the method: as §1

RAF1 = target: T21, RAF1 (Homo sapiens, UniProt P04049); details: read-out: % Retention on Solid Support
T21 construct: purchased DiscoveRx KINOMEscan
Summary of the method: as §1

MRCKA = target: T22, MRCKA (Homo sapiens, UniProt Q5VT25); details: read-out: % Retention on Solid Support
T22 construct: purchased DiscoveRx KINOMEscan
T22 sequence (Q5VT25 whole entry): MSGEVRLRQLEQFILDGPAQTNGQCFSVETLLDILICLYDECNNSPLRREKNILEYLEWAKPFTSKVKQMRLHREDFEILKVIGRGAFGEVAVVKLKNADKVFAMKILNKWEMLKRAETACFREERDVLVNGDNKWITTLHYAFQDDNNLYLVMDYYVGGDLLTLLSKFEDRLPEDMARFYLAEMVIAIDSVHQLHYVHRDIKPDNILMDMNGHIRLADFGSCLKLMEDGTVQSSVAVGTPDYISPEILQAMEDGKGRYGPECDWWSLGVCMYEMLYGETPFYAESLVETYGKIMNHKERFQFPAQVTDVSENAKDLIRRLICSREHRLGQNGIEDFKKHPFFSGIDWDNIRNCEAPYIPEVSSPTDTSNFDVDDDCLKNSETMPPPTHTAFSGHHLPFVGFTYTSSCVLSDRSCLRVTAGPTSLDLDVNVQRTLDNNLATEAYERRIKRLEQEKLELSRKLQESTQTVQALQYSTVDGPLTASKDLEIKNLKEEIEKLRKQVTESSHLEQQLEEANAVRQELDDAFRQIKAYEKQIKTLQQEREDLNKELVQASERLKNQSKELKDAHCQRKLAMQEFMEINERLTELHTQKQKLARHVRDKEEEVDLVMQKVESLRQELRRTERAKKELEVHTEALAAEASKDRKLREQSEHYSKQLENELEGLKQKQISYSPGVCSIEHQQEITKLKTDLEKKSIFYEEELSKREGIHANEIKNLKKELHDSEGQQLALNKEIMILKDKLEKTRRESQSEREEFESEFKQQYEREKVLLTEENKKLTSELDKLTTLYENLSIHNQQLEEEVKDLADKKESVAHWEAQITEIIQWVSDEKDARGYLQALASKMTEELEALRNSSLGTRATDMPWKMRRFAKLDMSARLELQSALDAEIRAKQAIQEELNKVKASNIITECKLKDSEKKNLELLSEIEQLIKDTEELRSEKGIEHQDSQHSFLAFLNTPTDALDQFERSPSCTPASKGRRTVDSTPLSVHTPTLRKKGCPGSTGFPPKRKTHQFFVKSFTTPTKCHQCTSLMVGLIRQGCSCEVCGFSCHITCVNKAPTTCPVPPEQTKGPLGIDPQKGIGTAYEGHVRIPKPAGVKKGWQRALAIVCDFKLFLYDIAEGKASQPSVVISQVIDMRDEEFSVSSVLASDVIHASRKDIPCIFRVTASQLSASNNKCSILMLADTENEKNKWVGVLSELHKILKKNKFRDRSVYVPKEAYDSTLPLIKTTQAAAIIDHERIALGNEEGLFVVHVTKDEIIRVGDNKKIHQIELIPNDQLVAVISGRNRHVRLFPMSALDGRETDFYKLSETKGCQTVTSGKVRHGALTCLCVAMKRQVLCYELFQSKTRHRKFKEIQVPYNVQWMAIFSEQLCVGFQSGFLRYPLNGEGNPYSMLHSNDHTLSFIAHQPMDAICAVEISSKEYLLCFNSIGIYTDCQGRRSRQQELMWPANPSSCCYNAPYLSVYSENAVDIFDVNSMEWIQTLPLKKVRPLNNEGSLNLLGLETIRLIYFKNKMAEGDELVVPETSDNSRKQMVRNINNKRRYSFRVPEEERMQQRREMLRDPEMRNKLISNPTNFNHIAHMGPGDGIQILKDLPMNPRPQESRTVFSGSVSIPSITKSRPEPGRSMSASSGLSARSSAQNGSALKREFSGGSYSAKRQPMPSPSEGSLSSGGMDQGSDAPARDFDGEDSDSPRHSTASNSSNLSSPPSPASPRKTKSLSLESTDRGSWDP
Summary of the method: as §1

[3] = target: T23, RSK3(Kin.Dom.2-C-terminal) (Homo sapiens, UniProt Q15349); details: read-out: % Retention on Solid Support
T23 construct: RSK3(Kin.Dom.2-C-terminal); purchased DiscoveRx KINOMEscan
T23 sequence (Q15349 389-733 limits assumed): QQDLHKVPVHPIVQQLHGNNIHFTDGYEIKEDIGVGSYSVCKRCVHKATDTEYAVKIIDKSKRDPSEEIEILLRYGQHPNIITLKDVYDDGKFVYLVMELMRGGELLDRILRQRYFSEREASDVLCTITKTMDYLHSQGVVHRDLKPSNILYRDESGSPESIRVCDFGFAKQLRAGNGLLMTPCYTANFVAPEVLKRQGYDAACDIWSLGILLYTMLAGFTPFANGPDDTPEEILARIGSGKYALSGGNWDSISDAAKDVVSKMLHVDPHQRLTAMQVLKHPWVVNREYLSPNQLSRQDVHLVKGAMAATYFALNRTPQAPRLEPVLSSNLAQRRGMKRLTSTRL
Summary of the method: as §1

DCAMKL3 = target: T24, DCAMKL3 (Homo sapiens, UniProt Q9C098); details: read-out: % Retention on Solid Support
T24 construct: purchased DiscoveRx KINOMEscan
Summary of the method: as §1

T1 sequence (Q07912 whole entry): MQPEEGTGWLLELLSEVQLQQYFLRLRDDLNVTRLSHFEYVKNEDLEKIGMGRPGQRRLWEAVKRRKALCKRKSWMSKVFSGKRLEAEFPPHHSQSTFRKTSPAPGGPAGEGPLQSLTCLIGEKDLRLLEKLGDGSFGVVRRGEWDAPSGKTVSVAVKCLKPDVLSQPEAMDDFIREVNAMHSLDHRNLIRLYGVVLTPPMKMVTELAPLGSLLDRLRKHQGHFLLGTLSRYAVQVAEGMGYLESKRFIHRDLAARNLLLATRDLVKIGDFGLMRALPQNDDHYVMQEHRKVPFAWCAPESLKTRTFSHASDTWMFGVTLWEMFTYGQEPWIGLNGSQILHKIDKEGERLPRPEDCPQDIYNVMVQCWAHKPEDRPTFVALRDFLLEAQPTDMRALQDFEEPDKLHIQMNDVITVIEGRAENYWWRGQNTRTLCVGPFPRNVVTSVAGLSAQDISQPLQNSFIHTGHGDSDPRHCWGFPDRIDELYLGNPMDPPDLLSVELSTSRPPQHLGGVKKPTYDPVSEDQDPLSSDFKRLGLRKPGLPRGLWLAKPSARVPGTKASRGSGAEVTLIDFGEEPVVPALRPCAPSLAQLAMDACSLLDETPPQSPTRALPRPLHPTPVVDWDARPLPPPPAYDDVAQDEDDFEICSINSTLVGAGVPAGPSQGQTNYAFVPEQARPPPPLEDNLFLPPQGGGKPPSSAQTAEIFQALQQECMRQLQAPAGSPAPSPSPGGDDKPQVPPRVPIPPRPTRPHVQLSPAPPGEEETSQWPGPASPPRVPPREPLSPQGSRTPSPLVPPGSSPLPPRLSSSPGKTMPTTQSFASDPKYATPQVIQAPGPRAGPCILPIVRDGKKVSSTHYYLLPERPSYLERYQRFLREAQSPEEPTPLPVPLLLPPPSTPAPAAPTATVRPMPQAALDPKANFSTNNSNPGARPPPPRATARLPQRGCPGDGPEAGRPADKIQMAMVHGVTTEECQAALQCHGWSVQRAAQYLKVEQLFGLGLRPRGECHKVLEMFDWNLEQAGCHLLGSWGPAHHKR

`N[C@H]1CC[C@H](Nc2cc(-c3cccc(NCc4cccc(F)c4)n3)c(Cl)cn2)CC1` [i-CDK9, N2′-(trans-4-aminocyclohexyl)-5′-chloro-N6-(3-fluorobenzyl)-2,4′-bipyridine-2′,6-diamine] was tested, and the remaining binding at 1 µM (TNK2; 1 µM i-CDK9) was 88%, the remaining binding at 10 µM (TNK2; 10 µM i-CDK9) was 99% and the remaining binding at 1 µM (CDC2L1; 1 µM i-CDK9) was 92%. The remaining binding at 10 µM (CDC2L1; 10 µM i-CDK9) was 36%, the “% Retention on Solid Support” value ([1]; 1 µM i-CDK9) was 46% and the “% Retention on Solid Support” value ([1]; 10 µM i-CDK9) was 65%. For the same compound, the remaining binding at 1 µM (MAPKAPK5; 1 µM i-CDK9) was 100%, the remaining binding at 10 µM (MAPKAPK5; 10 µM i-CDK9) was 94% and the remaining binding at 1 µM (TSSK1B; 1 µM i-CDK9) was 99%. It also gave a remaining binding at 10 µM (TSSK1B; 10 µM i-CDK9) of 68%, a remaining binding at 1 µM (CAMK2G; 1 µM i-CDK9) of 100% and a remaining binding at 10 µM (CAMK2G; 10 µM i-CDK9) of 100%. For the same compound, the remaining binding at 1 µM (AMPK-alpha1; 1 µM i-CDK9) was 84%, the remaining binding at 10 µM (AMPK-alpha1; 10 µM i-CDK9) was 93% and the “% Retention on Solid Support” value (CDK11; 1 µM i-CDK9) was 94%. For the same compound, the “% Retention on Solid Support” value (CDK11; 10 µM i-CDK9) was 100%, the “% Retention on Solid Support” value (MET(Y1235D); 1 µM i-CDK9) was 100% and the “% Retention on Solid Support” value (MET(Y1235D); 10 µM i-CDK9) was 11%. It also gave a remaining binding at 1 µM (TAOK1; 1 µM i-CDK9) of 51%, a remaining binding at 10 µM (TAOK1; 10 µM i-CDK9) of 4% and a remaining binding at 1 µM (PDGFRA; 1 µM i-CDK9) of 59%. The remaining binding at 10 µM (PDGFRA; 10 µM i-CDK9) was 88%, the remaining binding at 1 µM (MLCK; 1 µM i-CDK9) was 100% and the remaining binding at 10 µM (MLCK; 10 µM i-CDK9) was 90%. The remaining binding at 1 µM (MAPKAPK2; 1 µM i-CDK9) was 100%, the remaining binding at 10 µM (MAPKAPK2; 10 µM i-CDK9) was 100% and the remaining binding at 1 µM (CSNK1A1) was 69%. The “% Retention on Solid Support” value (EGFR(L858R); 1 µM i-CDK9) was 35%, the “% Retention on Solid Support” value (EGFR(L858R); 10 µM i-CDK9) was 100% and the remaining binding at 1 µM (MARK3; 1 µM i-CDK9) was 94%. It also gave a remaining binding at 10 µM (MARK3; 10 µM i-CDK9) of 71%, a remaining binding at 1 µM (BLK; 1 µM i-CDK9) of 100% and a remaining binding at 10 µM (BLK; 10 µM i-CDK9) of 100%. For the same compound, the remaining binding at 1 µM (GSK3B; 1 µM i-CDK9) was 79%, the remaining binding at 10 µM (GSK3B; 10 µM i-CDK9) was 74% and the remaining binding at 1 µM (PRKX; 1 µM i-CDK9) was 100%. It also gave a remaining binding at 10 µM (PRKX; 10 µM i-CDK9) of 90%, a remaining binding at 1 µM [2] of 100% and a remaining binding at 1 µM (RAF1; 1 µM i-CDK9) of 100%. It also gave a remaining binding at 10 µM (RAF1; 10 µM i-CDK9) of 100%, a remaining binding at 1 µM (MRCKA; 1 µM i-CDK9) of 100% and a remaining binding at 10 µM (MRCKA; 10 µM i-CDK9) of 100%. For the same compound, the remaining binding at 1 µM ([3]; 1 µM i-CDK9) was 73%, the remaining binding at 10 µM ([3]; 10 µM i-CDK9) was 100% and the remaining binding at 1 µM (DCAMKL3; 1 µM i-CDK9) was 100%. For the same compound, the remaining binding at 10 µM (DCAMKL3; 10 µM i-CDK9) was 63%.
